Tests used:
Assay type in all cases: functional
A549 = assay: Cytotoxicity against human A549 cells
ACHN = assay: Cytotoxicity against human ACHN cells
PC-3 = assay: Cytotoxicity against human PC3 cells
M14 = assay: Cytotoxicity against human M14 cells
OVCAR-5 = assay: Cytotoxicity against human OVCAR5 cells
BT-549 = assay: Cytotoxicity against human BT549 cells
RXF 393 = assay: Cytotoxicity against human RXF393 cells
OVCAR-8 = assay: Cytotoxicity against human OVCAR8 cells
SN12C = assay: Cytotoxicity against human SN12C cells
HCT-15 = assay: Cytotoxicity against human HCT15 cells
COLO 205 = assay: Cytotoxicity against human COLO205 cells
HCC 2998 = assay: Cytotoxicity against human HCC2998 cells
[1] = Cytotoxicity against human MCF7/ADR cells; details: NCI/ADR-RES
HT-29 = assay: Cytotoxicity against human HT29 cells
MDA-MB-435 = assay: Cytotoxicity against human MDA-MB-435 cells
[2] = read-out: pLC50 (the source's name) (converted)

C#C[C@H](O)/C=C/CCCCCCCCCC/C=C\CCCCCCC[C@H](O)C#CC#CC#CCO [TRIANGULYNE A]
GI50 (A549): 339 nM | CC50 (A549; [2]): 47900 nM | TGI (A549; read-out: pTGI (converted)): 5750 nM | GI50 (ACHN): 776 nM | CC50 (ACHN; [2]): 32400 nM | TGI (ACHN; read-out: pTGI (converted)): 7240 nM | GI50 (PC-3): 191 nM | CC50 (PC-3; [2]): 10000 nM | TGI (PC-3; read-out: pTGI (converted)): 1100 nM | GI50 (M14): 158 nM | LC50 (M14): 3470 nM | TGI (M14; read-out: pTGI (converted)): 813 nM | GI50 (OVCAR-5): 4470 nM | CC50 (OVCAR-5; [2]): 34700 nM | TGI (OVCAR-5; read-out: pTGI (converted)): 12000 nM | GI50 (BT-549): 794 nM | CC50 (BT-549; [2]): 11000 nM | TGI (BT-549; read-out: pTGI (converted)): 2400 nM | GI50 (RXF 393): 339 nM | CC50 (RXF 393; [2]): 18200 nM | TGI (RXF 393; read-out: pTGI (converted)): 1290 nM | GI50 (OVCAR-8): 129 nM | CC50 (OVCAR-8; [2]): 21900 nM | TGI (OVCAR-8; read-out: pTGI (converted)): 851 nM | GI50 (SN12C): 1410 nM | CC50 (SN12C; [2]): 32400 nM | TGI (SN12C; read-out: pTGI (converted)): 11000 nM | GI50 (HCT-15): 407 nM | LC50 (HCT-15): 7240 nM | TGI (HCT-15; read-out: pTGI (converted)): 2090 nM | GI50 (COLO 205): 200 nM | LC50 (COLO 205): 2290 nM | TGI (COLO 205; read-out: pTGI (converted)): 417 nM | GI50 (HCC 2998): 257 nM | LC50 (HCC 2998): 2190 nM | TGI (HCC 2998; read-out: pTGI (converted)): 692 nM | GI50 [1]: 302 nM | CC50 [1, 2]: 32400 nM | TGI ([1]; read-out: pTGI (converted)): 5130 nM | GI50 (HT-29): 363 nM | LC50 (HT-29): 3630 nM | TGI (HT-29; read-out: pTGI (converted)): 1290 nM | GI50 (MDA-MB-435): 170 nM | CC50 (MDA-MB-435; [2]): 4470 nM | TGI (MDA-MB-435; read-out: pTGI (converted)): 832 nM
